Data on two molecules can be found in paper PMC6838048, “A Cell-Free Approach Based on Phospholipid Characterization for Determination of the Cell Specific Unbound Drug Fraction (fu,cell)” (Pharmaceutical Research, 2019).

Series [1] is described as follows: fu,PL from membrane affinity to PL-covered silica beads, PC. The series is classed as in vitro ADME. Conditions: beads coated with pure PC, 15 min incubation. On the procedure: (§1) f u,PL was derived from membrane affinity measurements to beads covered with PLs as previously described ([6]).
(§2) Cbuffer was quantified by LC-MS/MS in samples of the supernatant that was obtained after 15 min incubation time on an orbital shaker at 1000 rpm and subsequent separation from the beads by centrifugation at 750 x g. […] Unspecific binding was evaluated by incubations into wells without added lipids.

Series [2] in a line: fu,cell by equilibrium dialysis of cell homogenate, HL60. Format: in vitro ADME. Conditions: human, dialysis 4 h 37°C, 10 million cells/mL homogenate, read-out: fu,HL60 Geomean. On the procedure:
(§3) fu,cell was measured in cassette-mode as previously described with minor modifications ([9]). Briefly, 10 million cells/mL were suspended in HBSS buffered with 10 mM HEPES and homogenized on ice by sonication (VCX 750 Sonicator, 3 mm probe, 20% intensity, 10 s). Up to 8 compounds were combined randomly and spiked into the homogenate for a final concentration of 0.5 μM. Equilibrium dialysis was performed in a Rapid Equilibirum device (Thermo Fisher Scientific) against blank HBSS buffered with 10 mM HEPES, for 4 h at 37°C on an orbital shaker at 900 rpm. Stability controls were kept at 4° and 37°C for the duration of the experiment. The concentration in both dialysis chambers was quantified by extracting the compound with acetonitrile/water (60/40) containing internal standard. Matrixes were matched with blank buffer or cell homogenate, respectively. LC-MS/MS parameters are available in Table S9. All experiments were carried out in triplicates and at least at two independent occasions.
(§4) The unbound fraction in the cell homogenate (fu,hom) was determined according to Eq. (1):1 fu,hom=Cbuffer/Chom and the fraction of unbound compound in the cell (fu,cell) was calculated by correcting for homogenate dilution according to Eq. (2):2 fu,cell=1/DP∙1/fu,hom−1+1 where the dilution constant DP was calculated using Eq. (3), assuming the Vcell to be equal to 6.5 μL/mg protein ([6],[10]). Protein content in the cell homogenates was determined at each experiment using the BCA Protein Assay Reagent Kit (Thermo Fisher Scientific Inc.).3 DP=1/Vcell
(In general: In equilibrium dialysis free small molecules cross a membrane that holds back macromolecules.)

The nature of series [3]: fu,PL from membrane affinity to PL-covered silica beads, PS. The series is classed as in vitro ADME. Conditions: silica beads covered with phosphatidylserine (PS), Transil; beads coated with pure PS, 15 min incubation; read-out: fu,PS Geomean. How it is done: as §1, §2
The nature of series [4]: fu,cell by equilibrium dialysis of cell homogenate, primary human hepatocytes. Format: in vitro ADME. The note with it: primary human hepatocyte homogenate, dialysis 4 h 37°C, 10 million cells/mL homogenate, read-out: fu,HH Geomean. How it is done: as §3, §4
A short description of series [5]: fu,cell by equilibrium dialysis of cell homogenate, Caco-2. Conditions: human, Caco-2 cell homogenate, dialysis 4 h 37°C, 10 million cells/mL homogenate, read-out: fu,Caco-2 Geomean. The series is classed as in vitro ADME. How it is done: as §3
(§5) (3), assuming the Vcell to be equal to 6.5 μL/mg protein ([6],[10]). Protein content in the cell homogenates was determined at each experiment using the BCA Protein Assay Reagent Kit (Thermo Fisher Scientific Inc.).3 DP=1/Vcell

Series [6] is described as follows: fu,cell by equilibrium dialysis of cell homogenate, MDCK. Format: in vitro ADME. Conditions: dog, dialysis 4 h 37°C, 10 million cells/mL homogenate, read-out: fu,MDCK Geomean. How it is done:
as §3, §5

Series [7] in a line: fu,cell by equilibrium dialysis of cell homogenate, LLC-PK1. Format: in vitro ADME. Conditions: pig, dialysis 4 h 37°C, 10 million cells/mL homogenate, read-out: fu,LLCPK1 Geomean. How it is done:
as §3, §4

For series [8], the system named is cell types of the study. The note with it: contributions from several PL subspecies combined (Fig. 5b).
The nature of series [9]: fu,cell by equilibrium dialysis of cell homogenate, K562. Format: in vitro ADME. The note with it: human, dialysis 4 h 37°C, 10 million cells/mL homogenate, read-out: fu,K562 Geomean. On the procedure: as §3, §4
Series [10] can be described thus: fu,PL from membrane affinity to PL-covered silica beads, PE. Conditions: beads coated with pure PE, 15 min incubation; read-out: fu,PE Geomean. The series is classed as in vitro ADME. On the procedure:
as §1, §2

Series [11] is described as follows: fu,cell by equilibrium dialysis of cell homogenate, A549. Format: in vitro ADME. The note with it: human, dialysis 4 h 37°C, 10 million cells/mL homogenate, read-out: fu,A549 Geomean. How it is done: as §3, §4
Series [12] can be described thus: fu,PL from membrane affinity to PL-covered silica beads, mixed beads. The series is classed as in vitro ADME. The note with it: mixed beads PC:PE:PS:PI 52:22:12:14 mol%, 15 min incubation; read-out: fu,mixed bead Geomean. How it is done: as §1, §2
Series [13] can be described thus: fu,cell by equilibrium dialysis of cell homogenate, HEK293. The series is classed as in vitro ADME. Conditions: human, dialysis 4 h 37°C, 10 million cells/mL homogenate, read-out: fu,HEK293 Geomean. On the procedure:
as §3, §4

The structures appear in SMILES notation.

With `CCOc1cc(CC(=O)N[C@@H](CC(C)C)c2ccccc2N2CCCCC2)ccc1C(=O)O` [Repaglinide], the fraction unbound at 15 min in series [1] (silica beads covered with phosphatidylcholine (PC), Transil, read-out: fu,PC Geomean) was determined as 0.0114; in [3] it was 0.0084; in [10] it was 0.0039; in series [12] it was 0.0095. Moreover, the fraction unbound at 4 h, 0.5 μM in [2] turned out to be 0.0341; in series [4], 0.0097; in series [5], 0.0225; in series [6], 0.0269; in series [7], 0.0305; in [9], 0.0385. The figures for the fraction unbound at 4 h, 0.5 μM in series [11] and in [13] were 0.0254 and 0.0312, respectively. Further, the “predicted versus measured fu,cell” value in series [8] is listed as “consistently over-predicted”.
Consider `CCN(CC)CCCC(C)Nc1c2ccc(Cl)cc2nc2ccc(OC)cc12` (centres unmarked) [Quinacrine], for which the “fu,PC Geomean” value in [1] was 0.0002. The fraction unbound at 15 min in series [3] is 0.001; in series [12], 0.0029. For the same molecule, the fraction unbound at 4 h, 0.5 μM in [4] amounted to 0.0066; in series [6], 0.0036; in series [7], 0.0008; in series [9] it was 0.0164; in series [11] it was 0.0009; in series [13] it was 0.0075. In series [8], the “predicted versus measured fu,cell” value is “consistently over-predicted”.
